{"source": "patent US8551984B2", "about": "“Aminopyrimidines as SYK inhibitors” (Merck Sharp & Dohme Corp., priority 2009, dated 2013)", "target": "recombinant human SYK (GST-hSYK fusion protein) (Homo sapiens, UniProt P43405)", "assay": "biochemical", "key": {"[1]": {"conditions": "Syk IC50, HTRF, recombinant human GST-SYK"}}, "excerpt": "Homogeneous Time-Resolved Fluorescence (HTRF) Assay for the Recombinant Human SYK Enzyme:"}
{"smiles": "Cc1cc(Nc2nccc(C(F)(F)F)n2)cc(-c2cnc(C(C)(O)c3ccc(C(=O)O)cc3)s2)c1", "note": "(stereo not drawn) [4-{1-hydroxy-1-[5-(3-methyl-5-{[4-(trifluoromethyl)pyrimidin-2-yl]amino}phenyl)-1,3-thiazol-2-yl]ethyl}benzoic acid]", "values": [{"measurement": "IC50", "setting": "[1]", "result": "< 0.0005", "unit": "µM"}]}
{"smiles": "Cc1cc(Nc2nccc(C(F)(F)F)n2)cc(-c2cnc(C3(O)CC4(CC(C(=O)O)C4)C3)s2)c1", "note": "(stereo not drawn) [6-hydroxy-6-[5-(3-methyl-5-{[4-(trifluoromethyl)pyrimidin-2-yl]amino}phenyl)-1,3-thiazol-2-yl]spiro[3.3]heptane-2-carboxylic]", "values": [{"measurement": "IC50", "setting": "[1]", "result": 0.002, "unit": "µM"}]}
{"smiles": "Cc1cc(Nc2ncc(F)c(C)n2)cc(-c2cnc([C@]3(O)CC[C@@H](O)CC3)s2)c1", "note": "[8A-1]", "values": [{"measurement": "IC50", "setting": "rhSYK Activity, Table 8A", "result": "< 0.1", "unit": "µM"}]}
{"smiles": "Cc1cc(Nc2ncc(Cl)c(C)n2)cc(-c2cnc([C@]3(O)CC[C@@H](O)CC3)s2)c1", "note": "[8A-2]", "values": [{"measurement": "IC50", "setting": "rhSYK Activity, Table 8A", "result": "< 0.1", "unit": "µM"}]}
{"smiles": "COc1nc(Nc2cc(C)cc(-c3cnc([C@]4(O)CC[C@@H](O)CC4)s3)c2)ncc1F", "note": "[8A-3]", "values": [{"measurement": "IC50", "setting": "rhSYK Activity, Table 8A", "result": "< 0.1", "unit": "µM"}]}
{"smiles": "Cc1cc(Nc2ncc(F)c(C3CC3)n2)cc(-c2cnc([C@]3(O)CC[C@@H](O)CC3)s2)c1", "note": "[8A-4]", "values": [{"measurement": "IC50", "setting": "rhSYK Activity, Table 8A", "result": "< 0.1", "unit": "µM"}]}
{"smiles": "COc1nc(Nc2cc(C)cc(-c3cnc(C4(O)CCC(O)CC4)s3)c2)ncc1Cl", "note": "(stereo not drawn) [8A-5]", "values": [{"measurement": "IC50", "setting": "rhSYK Activity, Table 8A", "result": "< 0.1", "unit": "µM"}]}
{"smiles": "Cc1cc(Nc2nccc(C(F)(F)F)n2)cc(-c2cnc(C3(O)CCC(O)C(C)(C)C3)s2)c1", "note": "(stereo not drawn) [8A-6]", "values": [{"measurement": "IC50", "setting": "rhSYK Activity, Table 8A", "result": "< 0.1", "unit": "µM"}]}
{"smiles": "Cc1cc(Nc2ncc(F)c(C)n2)cc(-c2cnc(C3(O)CCC(=O)CC3)s2)c1", "note": "[8A-8]", "values": [{"measurement": "IC50", "setting": "rhSYK Activity, Table 8A", "result": "< 0.1", "unit": "µM"}]}
{"smiles": "NC(=O)[C@H]1CC[C@H](c2ncc(-c3cccc(Nc4nccc(C(F)(F)F)n4)c3)s2)CC1", "note": "[23-1]", "values": [{"measurement": "IC50", "setting": "hSYK Activity, table of Example 23-1", "result": "< 0.1", "unit": "µM"}]}
{"smiles": "CC(O)c1ncc(-c2cc(Nc3nccc(C(F)(F)F)n3)cc(N3CCOCC3)c2)s1", "note": "(stereo not drawn) [24-1]", "values": [{"measurement": "IC50", "setting": "rhSYK Activity, Table 24", "result": "< 0.1", "unit": "µM"}]}
{"smiles": "CC(=O)c1ncc(-c2cc(Nc3nccc(C(F)(F)F)n3)cc(N3CCOCC3)c2)s1", "note": "[24-3]", "values": [{"measurement": "IC50", "setting": "rhSYK Activity, Table 24", "result": "< 0.1", "unit": "µM"}]}
{"smiles": "CS(=O)(=O)N1CCN(c2cc(Nc3nccc(C(F)(F)F)n3)cc(-c3cnc(C4(O)CCC4)s3)c2)CC1", "note": "[24-4]", "values": [{"measurement": "IC50", "setting": "rhSYK Activity, Table 24", "result": "< 0.1", "unit": "µM"}]}
{"smiles": "CC(O)(c1ncc(-c2cc(Nc3nccc(C(F)(F)F)n3)cc(N3CCOCC3)c2)s1)C1CC1", "note": "(stereo not drawn) [24-6]", "values": [{"measurement": "IC50", "setting": "rhSYK Activity, Table 24", "result": "< 0.1", "unit": "µM"}]}
{"smiles": "CC(O)(c1ncc(-c2cc(Nc3nccc(C(F)(F)F)n3)cc(N3CCOCC3)c2)s1)C(F)(F)F", "note": "(stereo not drawn) [24-7]", "values": [{"measurement": "IC50", "setting": "rhSYK Activity, Table 24", "result": "< 0.1", "unit": "µM"}]}
{"smiles": "FC(F)(F)c1ccnc(Nc2cccc(-c3cnc(C4(F)CCC4)s3)c2)n1", "note": "[26-3]", "values": [{"measurement": "IC50", "setting": "rhSYK Activity, Table 26", "result": "0.1 to 1", "unit": "µM"}]}
{"smiles": "CC(C)(O)c1ncc(-c2cc(Nc3nccc(C(F)(F)F)n3)cc(C(F)F)c2)s1", "note": "[28-1]", "values": [{"measurement": "IC50", "setting": "hSYK Activity, table of Example 28-1", "result": "< 0.1", "unit": "µM"}]}
{"smiles": "Cc1cc(Nc2nccc(C(F)(F)F)n2)cc(-c2cnc(C3(O)CCNC(C(F)(F)F)C3)s2)c1", "note": "(stereo not drawn) [46-1]", "values": [{"measurement": "IC50", "setting": "rhSYK Activity, Table 46", "result": "< 0.1", "unit": "µM"}]}
{"smiles": "COC(=O)C1CC(O)(c2ncc(-c3cc(C)cc(Nc4nccc(C(F)(F)F)n4)c3)s2)CCN1", "note": "(stereo not drawn) [46-2]", "values": [{"measurement": "IC50", "setting": "rhSYK Activity, Table 46", "result": "< 0.1", "unit": "µM"}]}
{"smiles": "Cc1cc(Nc2nccc(C(F)(F)F)n2)cc(-c2cnc(C3(O)CCN(C(N)=O)C3)s2)c1", "note": "(stereo not drawn) [54B-2]", "values": [{"measurement": "IC50", "setting": "rhSYK Activity, Table 54B", "result": "< 0.1", "unit": "µM"}]}
{"smiles": "Cc1cc(Nc2nccc(C(F)(F)F)n2)cc(-c2cnc(C3(O)CCN(C(=O)OC(C)(C)C)C3)s2)c1", "note": "(stereo not drawn) [54B-4]", "values": [{"measurement": "IC50", "setting": "rhSYK Activity, Table 54B", "result": "0.1 to 1", "unit": "µM"}]}
{"smiles": "Cc1cc(Nc2nccc(C(F)(F)F)n2)cc(-c2cnc(C3(O)CCNC3)s2)c1", "note": "(stereo not drawn) [54B-5]", "values": [{"measurement": "IC50", "setting": "rhSYK Activity, Table 54B", "result": "< 0.1", "unit": "µM"}]}
{"smiles": "Cc1cc(Nc2nccc(C(F)(F)F)n2)cc(-c2cnc(C3(O)CCN(S(N)(=O)=O)C3)s2)c1", "note": "(stereo not drawn) [54B-6]", "values": [{"measurement": "IC50", "setting": "rhSYK Activity, Table 54B", "result": "< 0.1", "unit": "µM"}]}
{"smiles": "Cc1cc(Nc2nccc(C(F)(F)F)n2)cc(-c2cnc(C3(O)CCN(S(=O)(=O)NC(=O)OC(C)(C)C)C3)s2)c1", "note": "(stereo not drawn) [54B-9]", "values": [{"measurement": "IC50", "setting": "rhSYK Activity, Table 54B", "result": "< 0.1", "unit": "µM"}]}
{"smiles": "COc1ccnc(Nc2cc(C)cc(-c3cnc(C4(O)CCN(C(N)=O)C4)s3)c2)n1", "note": "(stereo not drawn) [54B-10]", "values": [{"measurement": "IC50", "setting": "rhSYK Activity, Table 54B", "result": "< 0.1", "unit": "µM"}]}
{"smiles": "COc1ccnc(Nc2cc(C)cc(-c3cnc(C4(O)CCNC4)s3)c2)n1", "note": "(stereo not drawn) [54B-11]", "values": [{"measurement": "IC50", "setting": "rhSYK Activity, Table 54B", "result": "< 0.1", "unit": "µM"}]}
{"smiles": "Cc1cc(Nc2nccc(C)n2)cc(-c2cnc(C3(O)CCNC3)s2)c1", "note": "(stereo not drawn) [54B-12]", "values": [{"measurement": "IC50", "setting": "rhSYK Activity, Table 54B", "result": "< 0.1", "unit": "µM"}]}
{"smiles": "Cc1cc(Nc2nccc(C)n2)cc(-c2cnc(C3(O)CCN(C(N)=O)C3)s2)c1", "note": "(stereo not drawn) [54B-13]", "values": [{"measurement": "IC50", "setting": "rhSYK Activity, Table 54B", "result": "< 0.1", "unit": "µM"}]}
{"smiles": "Cc1cc(Nc2nccc(C(F)(F)F)n2)cc(-c2cnc(C3(O)CCN(CCO)C3)s2)c1", "note": "(stereo not drawn) [54B-19]", "values": [{"measurement": "IC50", "setting": "rhSYK Activity, Table 54B", "result": "< 0.1", "unit": "µM"}]}
{"smiles": "Cc1cc(Nc2nccc(C(F)(F)F)n2)cc(-c2cnc(C3(O)CCN(CC(N)=O)C3)s2)c1", "note": "(stereo not drawn) [54B-20]", "values": [{"measurement": "IC50", "setting": "rhSYK Activity, Table 54B", "result": "< 0.1", "unit": "µM"}]}
{"smiles": "Cc1cc(Nc2nccc(C(F)(F)F)n2)cc(-c2cnc(C3(O)CCN(C(=O)CO)C3)s2)c1", "note": "(stereo not drawn) [54B-21]", "values": [{"measurement": "IC50", "setting": "rhSYK Activity, Table 54B", "result": "< 0.1", "unit": "µM"}]}
{"smiles": "Cc1cc(Nc2nccc(C(F)(F)F)n2)cc(-c2cnc(C3(O)CCN(CC(=O)O)C3)s2)c1", "note": "(stereo not drawn) [54B-22]", "values": [{"measurement": "IC50", "setting": "rhSYK Activity, Table 54B", "result": "< 0.1", "unit": "µM"}]}
{"smiles": "Cc1cc(Nc2nccc(C(F)(F)F)n2)cc(-c2cnc(C3(O)CCN(C(=O)C(N)=O)C3)s2)c1", "note": "(stereo not drawn) [54B-23]", "values": [{"measurement": "IC50", "setting": "rhSYK Activity, Table 54B", "result": "< 0.1", "unit": "µM"}]}
{"smiles": "COC(=O)CN1CCC(O)(c2ncc(-c3cc(C)cc(Nc4nccc(C(F)(F)F)n4)c3)s2)C1", "note": "(stereo not drawn) [54B-24]", "values": [{"measurement": "IC50", "setting": "rhSYK Activity, Table 54B", "result": "< 0.1", "unit": "µM"}]}
{"smiles": "Cc1cc(Nc2nccc(C(F)(F)F)n2)cc(-c2cnc(C3(O)CCN(C(=O)C(=O)O)C3)s2)c1", "note": "(stereo not drawn) [54B-25]", "values": [{"measurement": "IC50", "setting": "rhSYK Activity, Table 54B", "result": "< 0.1", "unit": "µM"}]}
{"smiles": "Cc1cc(Nc2nccc(C(F)(F)F)n2)cc(-c2cnc(C3(O)CCN(C(=O)CC(N)=O)C3)s2)c1", "note": "(stereo not drawn) [54B-26]", "values": [{"measurement": "IC50", "setting": "rhSYK Activity, Table 54B", "result": "< 0.1", "unit": "µM"}]}
